Test results as given in US10947252B2, “Inhibitors of KEAP1-Nrf2 protein-protein interaction” (Janssen Pharmaceutica NV, priority 2018, dated 2021).

Assays:
[1] = target: Kelch domain of human KEAP1 (321-624 aa) (Homo sapiens (Human), UniProt Q14145); test: KEAP1 KELCH ThermoFluor binding assay; conditions: KEAP Kelch […], 1,8-ANS, pH 7.0, average of results obtained, read-out: Tf Kd;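 note: Ligand-induced melting temperature shift of E. coli-expressed KEAP1 Kelch protein, Kd estimated from concentration-response curves of ΔTm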
[2] = tested on: Glo-Response ARE-luc2P HEK293 cell line; test: ARE luciferase reporter cell-based assay; conditions: Homo sapiens, HEK293, 24 h, average of results obtained;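 note: luciferase signal tracks Nrf2 activation of the ARE once compounds disrupt KEAP1-Nrf2 binding, read with One-Glo reagent, DMSO serving as low control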

Kelch domain of human KEAP1 (321-624 aa), sequence (Q14145 321-624): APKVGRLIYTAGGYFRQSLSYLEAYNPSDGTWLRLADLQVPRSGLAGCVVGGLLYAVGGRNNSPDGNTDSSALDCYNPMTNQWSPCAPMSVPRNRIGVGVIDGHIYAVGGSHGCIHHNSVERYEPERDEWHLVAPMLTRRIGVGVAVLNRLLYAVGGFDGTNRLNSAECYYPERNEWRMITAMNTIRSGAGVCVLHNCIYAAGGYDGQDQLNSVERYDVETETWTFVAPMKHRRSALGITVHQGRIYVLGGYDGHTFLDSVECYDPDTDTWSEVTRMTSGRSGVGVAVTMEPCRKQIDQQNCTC

Question: Which results are given for `Cc1cc2cc(C(CC(=O)O)c3ccc(C)c(CN4C[C@H]5CCCN5c5ncccc5S4(=O)=O)c3)n(C)c2nn1` (mixture of isomers) [Example 434, 3-(3,7-Dimethyl-7H-pyrrolo[2,3-c]pyridazin-6-yl)-3-(3-(((R)-5,5-dioxido-7a,8,9,10-tetrahydropyrido[2,3-f]pyrrolo[2,1-d][1,2,5]thiadiazepin-6(7H)-yl)methyl)-4-methylphenyl)propanoic Acid]?
Answer: Kd [1]: 1.51 nM; EC50 [2]: 3870 nM

Question: With `Cc1cc2cc(C(CC(=O)O)c3ccc(C)c(CN4C[C@@H]5CCCN5c5ncccc5S4(=O)=O)c3)n(C)c2nn1` (mixture of isomers) [Example 437, 3-(3,7-Dimethyl-7H-pyrrolo[2,3-c]pyridazin-6-yl)-3-(3-(((S)-5,5-dioxido-7a, 8,9,10-tetrahydropyrido[2,3-f]pyrrolo[2,1-d][1,2,5]thiadiazepin-6(7H)-yl)methyl)-4-methylphenyl)propanoic Acid] as the compound, how does the Kd [1] read?
Answer: The Kd was 1.84 nM.

Question: And the EC50 [2]?
Answer: The EC50 was 4380 nM.

Question: How did the Kd [1] turn out when `Cc1cc2cc(C(CC(=O)O)c3ccc(C)c(CN4C[C@@H]5CCCCN5c5ncccc5S4(=O)=O)c3)n(C)c2nn1` (mixture of isomers) [Example 440, 3-(3,7-Dimethyl-7H-pyrrolo[2,3-c]pyridazin-6-yl)-3-(3-(((S)-5,5-dioxido-7,7a,8,9,10,11-hexahydro-6H-dipyrido[2,1-d:2′,3′-f][1,2,5]thiadiazepin-6-yl)methyl)-4-methylphenyl)propanoic Acid] was run?
Answer: The Kd was less than 1 nM.

Question: And the EC50 [2]?
Answer: The EC50 was 714 nM.

Question: What does the source list for `Cc1ccc(C(CC(=O)O)c2ccn3c(C(F)F)nnc3c2C)cc1CN1C[C@H]2CCCN2c2ncccc2S1(=O)=O` (mixture of isomers) [Example 449, 3-(3-(Difluoromethyl)-8-methyl-[1,2,4]triazolo[4,3-a]pyridin-7-yl)-3-(3-(((R)-5,5-dioxido-7a,8,9,10-tetrahydropyrido[2,3-f]pyrrolo[2,1-d][1,2,5]thiadiazepin-6(7H)-yl)methyl)-4-methylphenyl)propanoic Acid]?
Answer: Kd [1]: < 1 nM; EC50 [2]: 47.6 nM

Question: With `CC[C@@H]1CN(Cc2cc(C(CC(=O)O)c3ccn4c(C(F)F)nnc4c3C)ccc2C)S(=O)(=O)c2cccnc2O1` (mixture of isomers) [Example 463, 3-(3-(Difluoromethyl)-8-methyl-[1,2,4]triazolo[4,3-a]pyridin-7-yl)-3-(3-(((R)-4-ethyl-1,1-dioxido-3,4-dihydro-2H-pyrido[2,3-b][1,4,5]oxathiazepin-2-yl)methyl)-4-methylphenyl)propanoic Acid] as the compound, how does the Kd [1] read?
Answer: Its Kd is less than 1 nM.

Question: What about the EC50 [2] of the same compound?
Answer: The EC50 was 27.6 nM.

Question: Which results are given for `Cc1ccc(C(CC(=O)O)c2ccn3c(C(F)F)nnc3c2C)cc1CN1C[C@@H]2CCCN2c2ncc(C#N)cc2S1(=O)=O` (mixture of isomers) [Example 542, 3-(3-(((S)-3-Cyano-5,5-dioxido-7a,8,9,10-tetrahydropyrido[2,3-f]pyrrolo[2,1-d][1,2,5]thiadiazepin-6(7H)-yl)methyl)-4-methylphenyl)-3-(3-(difluoromethyl)-8-methyl-[1,2,4]triazolo[4,3-a]pyridin-7-yl)propanoic Acid]?
Answer: Kd [1]: < 1 nM; EC50 [2]: 59.6 nM

Question: For `Cc1ccc(C(c2ccn3c(C(F)(F)F)nnc3c2C)C(C)(C)C(=O)O)cc1CN1CC2(CCOCC2)Oc2nc(OCCN3CCOCC3)ccc2S1(=O)=O` (racemic) [Example 46], which Kd [1] is on record?
Answer: Its Kd is less than 1 nM.

Question: And the EC50 [2]?
Answer: Its EC50 is 71.9 nM.

Question: For `Cc1ccc(C(c2ccn3c(C(F)F)nnc3c2C)C(C)(C)C(=O)O)cc1CN1CC2(CCOCC2)Oc2ncccc2S1(=O)=O` (racemic) [Example 52, (R/S)-3-(3-(Difluoromethyl)-8-methyl-[1,2,4]triazolo[4,3-a]pyridin-7-yl)-3-(3-((1′,1′-dioxido-2,3,5,6-tetrahydrospiro[pyran-4,4′-pyrido[2,3-b][1,4,5]oxathiazepin]-2′(3′H)-yl)methyl)-4-methylphenyl)-2,2-dimethylpropanoic Acid], which Kd [1] is on record?
Answer: The Kd was less than 1 nM.

Question: And the EC50 [2]?
Answer: The EC50 was 8.2 nM.

Question: For `Cc1cnc(C(c2ccn3c(C(F)(F)F)nnc3c2C)C(C)(C)C(=O)O)cc1CN1CC2(CCOCC2)Oc2ncccc2S1(=O)=O` (racemic) [Example 55, (R/S)-3-(4-((1′,1′-Dioxido-2,3,5,6-tetrahydrospiro[pyran-4,4′-pyrido[2,3-b][1,4,5]oxathiazepin]-2′(3′H)-yl)methyl)-5-methylpyridin-2-yl)-2,2-dimethyl-3-(8-methyl-3-(trifluoromethyl)-[1,2,4]triazolo[4,3-a]pyridin-7-yl)propanoic Acid], which Kd [1] is on record?
Answer: Its Kd is less than 1 nM.

Question: And the EC50 [2]?
Answer: Its EC50 is 124 nM.

Question: Which results are given for `CCn1nnc2c(C)c(C(c3cnc(C)c(CN4CC5(CCOCC5)Oc5ncccc5S4(=O)=O)c3)C(C)(C)C(=O)O)ccc21` (racemic) [Example 58, (R/S)-3-(5-((1′,1′-Dioxido-2,3,5,6-tetrahydrospiro[pyran-4,4′-pyrido[2,3-b][1,4,5]oxathiazepin]-2′(3′H)-yl)methyl)-6-methylpyridin-3-yl)-3-(1-ethyl-4-methyl-1H-benzo[d][1,2,3]triazol-5-yl)-2,2-dimethylpropanoic Acid]?
Answer: Kd [1]: 2.4 nM; EC50 [2]: 226 nM

Question: What does the source list for `CCn1nnc2c(C)c(C(c3cnc(C)c(CN4CC5(CCOCC5)Oc5ncc(C)cc5S4(=O)=O)c3)C(C)(C)C(=O)O)ccc21` (racemic) [Example 61, (R/S)-3-(1-Ethyl-4-methyl-1H-benzo[d][1,2,3]triazol-5-yl)-2,2-dimethyl-3-(6-methyl-5-((8′-methyl-1′,1′-dioxido-2,3,5,6-tetrahydrospiro[pyran-4,4′-pyrido[2,3-b][1,4,5]oxathiazepin]-2′(3′H)-yl)methyl)pyridin-3-yl)propanoic Acid]?
Answer: Kd [1]: < 1 nM; EC50 [2]: 41.7 nM

Question: Which Kd [1] does the source give for `Cc1ccc(C(CC(=O)O)c2ccn3c(C)nnc3c2)cc1CN1CC(C)(C)Oc2ncccc2S1(=O)=O` (racemic) [Example 160, (R/S)-3-(3-((4,4-Dimethyl-1,1-dioxido-3,4-dihydro-2H-pyrido[2,3-b][1,4,5]oxathiazepin-2-yl)methyl)-4-methylphenyl)-3-(3-methyl-[1,2,4]triazolo[4,3-a]pyridin-7-yl)propanoic Acid] here?
Answer: The Kd was less than 1 nM.

Question: What about the EC50 [2] of the same compound?
Answer: Its EC50 is 19000 nM.

Question: Which Kd [1] does the source give for `Cc1ccc(C(CC(=O)O)c2ccn3c(C)nnc3c2)cc1CN1CC(C)(C)Oc2ccccc2S1(=O)=O` (racemic) [Example 161, (R/S)-3-(3-((4,4-Dimethyl-1,1-dioxido-3,4-dihydro-2H-benzo[b][1,4,5]oxathiazepin-2-yl)methyl)-4-methylphenyl)-3-(3-methyl-[1,2,4]triazolo[4,3-a]pyridin-7-yl)propanoic Acid] here?
Answer: The Kd was 2.8 nM.

Question: And the EC50 [2]?
Answer: The EC50 was 15900 nM.

Question: What does the source list for `Cc1ccc(C(CC(=O)O)c2ccn3c(C(F)(F)F)nnc3c2C)cc1CN1C[C@@H]2CN(C)CCN2c2ncccc2S1(=O)=O` (mixture of isomers) [Example 177, (R/S)-3-(4-Methyl-3-(((*S)-9-methyl-5,5-dioxido-7,7a,8,9,10,11-hexahydro-6H-pyrazino[2,1-d]pyrido[2,3-f][1,2,5]thiadiazepin-6-yl)methyl)phenyl)-3-(8-methyl-3-(trifluoromethyl)-[1,2,4]triazolo[4,3-a]pyridin-7-yl)propanoic Acid]?
Answer: Kd [1]: 49 nM; EC50 [2]: 1390 nM

Question: How did the Kd [1] turn out when `Cc1ccc(C(CC(=O)O)c2ccn3c(C(F)(F)F)nnc3c2C)cc1CN1C[C@H]2CN(C)CCN2c2ncccc2S1(=O)=O` (mixture of isomers) [Example 180, (R/S)-3-(4-Methyl-3-(((*R)-9-methyl-5,5-dioxido-7,7a,8,9,10,11-hexahydro-6H-pyrazino[2,1-d]pyrido[2,3-f][1,2,5]thiadiazepin-6-yl)methyl)phenyl)-3-(8-methyl-3-(trifluoromethyl)-[1,2,4]triazolo[4,3-a]pyridin-7-yl)propanoic Acid] was run?
Answer: Its Kd is 190 nM.

Question: What about the EC50 [2] of the same compound?
Answer: Its EC50 is 2880 nM.

Question: Which Kd [1] does the source give for `Cc1ccc(C(CC(=O)O)c2ccn3c(C(F)(F)F)nnc3c2C)cc1CN1CC2(CC2)N(C)c2ncccc2S1(=O)=O` (racemic) [Example 183, (R/S)-3-(4-Methyl-3-((5′-methyl-1′,1′-dioxido-5′H-spiro[cyclopropane-1,4′-pyrido[2,3-f][1,2,5]thiadiazepin]-2′(3′H)-yl)methyl)phenyl)-3-(8-methyl-3-(trifluoromethyl)-[1,2,4]triazolo[4,3-a]pyridin-7-yl)propanoic Acid] here?
Answer: Its Kd is 1.6 nM.

Question: And the EC50 [2]?
Answer: The EC50 was 370 nM.

Question: `Cc1ccc(C(CC(=O)O)c2ccc3c(nnn3C3CC3)c2C)cc1CN1CC2(COC2)Oc2ccccc2S1(=O)=O` (racemic) [Example 214, (R/S)-3-(1-Cyclopropyl-4-methyl-1H-benzo[d][1,2,3]triazol-5-yl)-3-(3-((1,1-dioxidospiro[benzo[b][1,4,5]oxathiazepine-4,3′-oxetan]-2(3H)-yl)methyl)-4-methylphenyl)propanoic Acid] was tested. Which Kd [1] did it give?
Answer: Its Kd is less than 1 nM.

Question: What about the EC50 [2] of the same compound?
Answer: The EC50 was 5.1 nM.

Question: With `Cc1ccc(C(CC(=O)O)c2ccc3c(nnn3C3CC3)c2C)cc1CN1C[C@@H]2CCCCN2c2ccccc2S1(=O)=O` (mixture of isomers) [Example 217, (R/S)-3-(1-Cyclopropyl-4-methyl-1H-benzo[d][1,2,3]triazol-5-yl)-3-(3-(((*S)-5,5-dioxido-7,7a,8,9,10,11-hexahydro-6H-benzo[f]pyrido[2,1-d][1,2,5]thiadiazepin-6-yl)methyl)-4-methylphenyl)propanoic Acid] as the compound, how does the Kd [1] read?
Answer: Its Kd is less than 1 nM.

Question: And the EC50 [2]?
Answer: Its EC50 is 11 nM.

Question: How did the Kd [1] turn out when `Cc1ccc(C(CC(=O)O)c2ccc3c(nnn3C3CC3)c2C)cc1CN1C[C@]2(C)CCCN2c2ncccc2S1(=O)=O` (mixture of isomers) [Example 218, (R/S)-3-(1-Cyclopropyl-4-methyl-1H-benzo[d][1,2,3]triazol-5-yl)-3-(4-methyl-3-(((*S)-7a-methyl-5,5-dioxido-7a,8,9,10-tetrahydropyrido[2,3-f]pyrrolo[2,1-d][1,2,5]thiadiazepin-6(7H)-yl)methyl)phenyl)propanoic Acid] was run?
Answer: Its Kd is less than 1 nM.

Question: And the EC50 [2]?
Answer: The EC50 was 6.6 nM.

Question: How did the Kd [1] turn out when `Cc1ccc(C(CC(=O)O)c2ccc3c(nnn3C3CC3)c2C)cc1CN1C[C@@]2(C)CCCN2c2ncccc2S1(=O)=O` (mixture of isomers) [Example 221, (R/S)-3-(1-Cyclopropyl-4-methyl-1H-benzo[d][1,2,3]triazol-5-yl)-3-(4-methyl-3-(((*R)-7a-methyl-5,5-dioxido-7a,8,9,10-tetrahydropyrido[2,3-f]pyrrolo[2,1-d][1,2,5]thiadiazepin-6(7H)-yl)methyl)phenyl)propanoic Acid] was run?
Answer: The Kd was 19 nM.

Question: What about the EC50 [2] of the same compound?
Answer: The EC50 was 580 nM.
